Patent US20100035848A1, “THERAPY FOR DISORDERS OF THE PROXIMAL DIGESTIVE TRACT” (priority 2008, published 2010)

Assays:
[1] = tested on: LPS-induced NF-κB dependent transcription; test: In vivo imaging of LPS-induced NF-κB dependent transcription in NF-κB::Luc mice; parameters: species or system mouse
Description: More particularly, transgenic NF-κB::Luc mice were generated using three NF-κB response elements from the Igκ light chain promoter fused to a firefly luciferase gene as described by Carlsen et al. (2002) J. Immunol. 168:1441-1446. Pronuclear microinjection of purified construct DNA was used to generate transgenic founders in the C57BL/6 XCBA/J background. Founders were subsequently back-crossed to the C57BL/6 albino background. All experimental protocols were approved by the Institutional Animal Care and Use Committee and conform to the ILAR guide for the care and used of laboratory animals. For in vivo imaging, NF-κB::Luc mice were injected intraperitoneally with luciferin (150 mg/1 kg) 10 minutes before imaging, anesthetized (using 1-3% isoflurane) and placed into a light-tight camera box. […] Signal data were also quantitated and archived using the Living Image® software. Photons of light were quantitated using an oval region of interest (ROI) of varying sizes depending on the procedure, as described further below.
GL1001 was further tested for in vivo anti-inflammatory activity by examining its effects on bacterial LPS-induced NF-κB dependent transcription in NF-κB::Luc mice. […] Mice were subjected to quantitative abdominal imaging at 2, 4 and 6 hours following LPS administration, as described above. […] Luciferase signal was quantitated from several regions of interest. […]

[2] = tested on: LPS-induced NF-κB-dependent transcription; test: Luciferase assay of organs extracted from LPS-treated NF-κB::Luc mice; format: in vivo, mouse
Description: For luciferase assays, organs were extracted and snap-frozen in liquid nitrogen. All tissue samples were placed in lysis buffer with inhibitors (Passive Lysis Buffer (Promega) and Complete Mini Protease Inhibitor Cocktail (Roche, Indianapolis, Ind.)), and were homogenized using a Handishear hand-held tissue homogenizer (VirTis, Gardiner, N.Y.). Tissue homogenates were centrifuged and clarified lysates were used for luminometer assays and western blots. For the luminometer assays, Luciferase Assay Substrate (Luciferase Assay System, Promega) was prepared as indicated by the manufacturer and placed in disposable cuvettes. […] Background luminescence readings were obtained and the background readings were subtracted from the luminescent data. Protein concentrations were determined using the BCA Protein Assay Kit (Pierce, Rockford, Ill.) following the manufacturer's protocols and analyzed using a VERSAmax tunable microplate reader and associated Softmax Pro version 3.1.2 software (Molecular Devices, Sunnyvale Calif.). The luminescence for each of the protein lysates was calculated as arbitrary units of light per microgram of protein. […]
GL1001 was further tested for in vivo anti-inflammatory activity by examining its effects on bacterial LPS-induced NF-κB dependent transcription in NF-κB::Luc mice. […] Luciferase signal was quantitated from several regions of interest. […]

gastric PGE2 = test: Acute diclofenac-induced gastric toxicity in rats: gastric PGE2 concentration; format: in vivo, rat; settings: Group C: GL1001 oral before diclofenac 50 mg/kg; vehicle/vehicle Group A 43.22 ± 12.13
Protocol: Male Wistar rats were deprived of food but not water for 16 hours prior to oral administration of GL1001 90 mg/kg, incubated for 30 minutes and then given oral diclofenac 50 mg/kg. Each group consisted of 6 rats. As a negative control, one group received vehicle pretreatment, and then received vehicle instead of diclofenac. A positive control group received PGE2 100 μg/kg orally, 30 minutes prior to administration of diclofenac. All treatments were administered by oral gavage.
Three hours after diclofenac treatment, all animals were sacrificed and stomachs were removed and imaged to determine the severity of gastric damage. Additionally, stomach tissue samples were taken to assess disease activity and pharmacodynamic effects. Gastric damage scores were determined from photographic images (Ma & Wallace (2003) Am. J. Physiol. Gastrointest. Liver Physiol. 279; 341-346). Removed stomachs were opened along the greater curvature, pinned out on a wax block, and photographed along a 25 mm ruler reference with a digital 35 mm camera. The lesion area was then determined using enlarged images and computer software (www.scioncorp.co/pages/scion_image_windows.htm) that allows superimposed drawing of the perimeter of a wound and calculation of the area based on the ruler reference. Stomach samples (excluding forestomach) were used for measurements of PGE2 concentration, MPO activity and ACE2 activity. […] Concentration of PGE2 from stomach tissue samples was performed as described by Souza et al. (2003), supra, and quantification was obtained by LC-MS. […] Last, the extent of inhibition of ACE2 activity was determined to establish whether GL1001 was effective in inhibiting its ACE2 target in stomach tissues. The ACE2 activity assay is similar to the method of Vickers et al. (2002) J. Biol. Chem. 277:14838-14843, wherein purified recombinant ACE2 (100 pM) and a quenched fluorescent substrate (100-150 μM APK (7-methoxycoumarin-4-yl)acetyl-Ala-Pro-Lys (2,4-dinitrophenyl)) are used in end-point fluorescence reactions (excitation 320 nm, emission 405 nm). […]
Data are expressed as means with standard errors. […]

## CC(C)C[C@H](N[C@@H](Cc1cncn1Cc1cc(Cl)cc(Cl)c1)C(=O)O)C(=O)O [GL1001, (S,S)-2-[1-carboxy-2-[3-(3,5-dichlorobenzyl)-3H-imidazol-4-yl]-ethylamino]-4-methylpentanoic acid]
[1]; GL1001 30, 100 and 300 mg/kg s.c. 1 hour before LPS i.v., FIG. 3
  LPS induced NF-κB signaling response, abdominal region: significantly reduced
[1]; repeat with dose range 3-100 mg/kg s.c., effect at 30 and 100 mg/kg, FIG. 4
  LPS-induced NF-κB signaling, abdominal region: significantly reduced
[2]; 0.5 mg/kg LPS and GL1001 30 mg/kg vs LPS alone, FIG. 5
  reduction of LPS-induced NF-κB-dependent transcription in stomachs: about 37 fold
[2]; 0.5 mg/kg LPS and GL1001 30 mg/kg, pancreas, uterus, liver, kidney, spleen, small and large intestine, lymph nodes, cecum, ovary, brain, heart, lung
  decrease in LPS-induced NF-κB signaling in other organs: no statistically significant decrease
Gastric PGE2
  Gastric PGE2 concentration: 0 pg/mg
